BindingDB's records for patent US20230312550 (Astrazeneca, 2023)

Biological target: T1, Prolyl endopeptidase FAP (Homo sapiens, UniProt Q12884)
T1 sequence (Q12884 whole entry): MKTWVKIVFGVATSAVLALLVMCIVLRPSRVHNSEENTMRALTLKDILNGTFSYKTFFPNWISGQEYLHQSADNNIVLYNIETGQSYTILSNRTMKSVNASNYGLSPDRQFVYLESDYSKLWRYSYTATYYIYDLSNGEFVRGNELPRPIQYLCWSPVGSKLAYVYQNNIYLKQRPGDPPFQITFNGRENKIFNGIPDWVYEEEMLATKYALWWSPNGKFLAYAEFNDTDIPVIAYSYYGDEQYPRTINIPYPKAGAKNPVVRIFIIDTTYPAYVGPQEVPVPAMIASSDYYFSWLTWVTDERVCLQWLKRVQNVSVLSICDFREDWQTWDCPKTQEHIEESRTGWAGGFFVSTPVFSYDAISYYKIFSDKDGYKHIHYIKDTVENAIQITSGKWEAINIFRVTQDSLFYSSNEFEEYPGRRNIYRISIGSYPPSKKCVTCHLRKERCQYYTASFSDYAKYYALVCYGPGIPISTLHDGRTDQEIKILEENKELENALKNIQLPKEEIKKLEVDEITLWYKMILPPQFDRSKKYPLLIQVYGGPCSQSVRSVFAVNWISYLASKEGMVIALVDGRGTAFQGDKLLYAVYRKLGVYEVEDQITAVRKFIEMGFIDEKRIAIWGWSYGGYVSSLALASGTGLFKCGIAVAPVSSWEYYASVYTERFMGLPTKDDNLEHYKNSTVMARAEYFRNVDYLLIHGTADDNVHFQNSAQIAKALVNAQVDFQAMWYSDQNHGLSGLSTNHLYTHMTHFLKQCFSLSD
Test: hFAP Binding Assay
Settings: for kon: read-out: kon (M-1-s-1)
Description: Table 1: Compounds were tested in a direct binding assay using 8K surface plasmon resonance biosensor (GE Healthcare) at 20° C. Immobilization of hFAP (M39-A757) on a CMD200M sensor chip (Xantec) was performed using standard amine coupling procedure in immobilization buffer (10 mM HEPES, 150 mM NaCl, 0.05% Tween20, pH 7.4). The surface was washed with 10 mM NaOH, 1M NaCl before being activated with EDC/NHS (GE Healthcare), followed by immobilization of hFAP (in 10 mM Acetate pH 5.0). Finally, the surface was deactivated by ethanolamine. Immobilization levels of hFAP were around 4000-6000 RU. The reference spot was treated as described, omitting the injection of hFAP. Compound concentration series were injected over the immobilized protein in increasing concentrations (2-500 nM) using single cycle kinetics in running buffer (20 mM TRIS, 150 mM NaCl, 0.05% Tween20, 1% DMSO, pH 7.4).

| Structure (SMILES) | koff [s⁻¹] | kon [M⁻¹ s⁻¹] | koff (s-1) [s⁻¹] |
| --- | --- | --- | --- |
| N#C[C@@H]1CSCN1C(=O)CNC(=O)c1ccnc2ccc(N3CCC4(CC4)C3)cc12 [US20230312550, Example 49] | 0.00017 | 8.8e+06 | – |
| N#C[C@@H]1CSCN1C(=O)CNC(=O)c1ccnc2ccc(N3CC[C@@H](F)C3)cc12 [US20230312550, Example 52] | 0.00019 | 6.8e+06 | – |
| C[C@H]1CCN(c2ccc3nccc(C(=O)NCC(=O)N4CSC[C@H]4C#N)c3c2)C1 [US20230312550, Example 54] | 0.00023 | 6.2e+06 | – |
| CC1(C)CCCN1c1ccc2nccc(C(=O)NCC(=O)N3CSC[C@H]3C#N)c2c1 [US20230312550, Example 57] | 0.00018 | 8e+06 | – |
| N#C[C@@H]1CSCN1C(=O)CNC(=O)c1ccnc2ccc(N3CC4(CC4)C[C@@H]3CF)cc12 [US20230312550, Example 58] | 0.091 | 8.8e+09 | – |
| N#C[C@@H]1CSCN1C(=O)CNC(=O)c1ccnc2ccc(N3CCCC[C@H](F)C3)cc12 [US20230312550, Example 60] | 0.00017 | 1.7e+06 | – |
| C[C@@H]1CN(c2ccc3nccc(C(=O)NCC(=O)N4CSC[C@H]4C#N)c3c2)CCCO1 [US20230312550, Example 64] | 0.00015 | 1.3e+06 | – |
| C[C@H]1CCCN1c1ccc2nccc(C(=O)NCC(=O)N3CSC[C@H]3C#N)c2c1 [US20230312550, Example 65] | 0.00047 | 6.7e+06 | – |
| COC1CN(c2ccc3nccc(C(=O)NCC(=O)N4CSC[C@H]4C#N)c3c2)C1 [US20230312550, Example 66] | 0.00022 | 2.6e+07 | – |
| N#C[C@@H]1CSCN1C(=O)CNC(=O)c1ccnc2ccc(N3C[C@H]4C[C@@H]3CO4)cc12 [US20230312550, Example 76] | 5.2e-05 | 1e+06 | – |
| N#C[C@@H]1CSCN1C(=O)CNC(=O)c1ccnc2ccc(N3CC4CC(C3)O4)cc12 [US20230312550, Example 77] | 6.6e-05 | 4.8e+06 | – |
| N#C[C@@H]1CSCN1C(=O)CNC(=O)c1ccnc2ccc(N3C4CCCC3COC4)cc12 [US20230312550, Example 86] | 5.8e-05 | 730000 | – |
| CC1(C)CN(c2ccc3nccc(C(=O)NCC(=O)N4CSC[C@H]4C#N)c3c2)CCO1 [US20230312550, Example 88] | 0.00034 | 4.2e+06 | – |
| CS(=O)(=O)C[C@H]1CN(c2ccc3nccc(C(=O)NCC(=O)N4CSC[C@H]4C#N)c3c2)CCO1 [US20230312550, Example 92] | 0.00011 | 2.2e+06 | – |
| CS(=O)(=O)C[C@@H]1CN(c2ccc3nccc(C(=O)NCC(=O)N4CSC[C@H]4C#N)c3c2)CCO1 [US20230312550, Example 94] | 9.9e-05 | 1.9e+06 | – |
| COCC[C@@H]1COCCN1c1ccc2nccc(C(=O)NCC(=O)N3CSC[C@H]3C#N)c2c1 [US20230312550, Example 95] | 5.6e-05 | 2.9e+06 | – |
| COC[C@@H]1[C@@H](C)OCCN1c1ccc2nccc(C(=O)NCC(=O)N3CSC[C@H]3C#N)c2c1 [US20230312550, Example 97] | 7.6e-05 | 690000 | – |
| N#C[C@@H]1CSCN1C(=O)CNC(=O)c1ccnc2ccc(N3C4CCC3COC4)cc12 [US20230312550, Example 98] | 1.5e-05 | 1.6e+06 | – |
| N#C[C@@H]1CSCN1C(=O)CNC(=O)c1ccnc2ccc(N3CCOCC3)c(Cl)c12 [US20230312550, Example 101] | 2.5e-05 | 740000 | – |
| N#C[C@@H]1CSCN1C(=O)CNC(=O)c1ccnc2ccc(N3CCOCC34CCC4)cc12 [US20230312550, Example 104] | 6.1e-05 | 3e+06 | – |
| CC[C@H]1COCCN1c1ccc2nccc(C(=O)NCC(=O)N3CSC[C@H]3C#N)c2c1 [US20230312550, Example 106] | 0.00014 | 1.8e+06 | – |

More lines, now with the values ahead:

| koff [s⁻¹] | kon [M⁻¹ s⁻¹] | koff (s-1) [s⁻¹] | Structure (SMILES) |
| --- | --- | --- | --- |
| 8.9e-05 | 1.4e+06 | – | CC1(C)CCN(c2ccc3nccc(C(=O)NCC(=O)N4CSC[C@H]4C#N)c3c2)C1 [US20230312550, Example 48] |
| 0.00011 | 5.6e+06 | – | N#C[C@@H]1CSCN1C(=O)CNC(=O)c1ccnc2ccc(N3CC[C@H](F)C3)cc12 [US20230312550, Example 51] |
| 5e-05 | 680000 | – | N#C[C@@H]1CSCN1C(=O)CNC(=O)c1ccnc2ccc(N3CC4CCCC4C3)cc12 (some centres not stated) [US20230312550, Example 53] |
| 0.00025 | 6.7e+06 | – | C[C@@H]1CCN(c2ccc3nccc(C(=O)NCC(=O)N4CSC[C@H]4C#N)c3c2)C1 [US20230312550, Example 55] |
| 0.00011 | 540000 | – | N#C[C@@H]1CSCN1C(=O)CNC(=O)c1ccnc2ccc(N3CCC[C@H]3C(F)(F)F)cc12 [US20230312550, Example 56] |
| 0.00019 | 2.6e+06 | – | N#C[C@@H]1CSCN1C(=O)CNC(=O)c1ccnc2ccc(N3CCCC[C@@H](F)C3)cc12 [US20230312550, Example 59] |
| 8.5e-05 | 710000 | – | C[C@H]1CCN(c2ccc3nccc(C(=O)NCC(=O)N4CSC[C@H]4C#N)c3c2)CCO1 [US20230312550, Example 62] |
| 5.9e-05 | 4.1e+06 | – | C[C@H]1COCCCN1c1ccc2nccc(C(=O)NCC(=O)N3CSC[C@H]3C#N)c2c1 [US20230312550, Example 63] |
| 0.00016 | 2.4e+06 | – | N#C[C@@H]1CSCN1C(=O)CNC(=O)c1ccnc2ccc(N3CCO[C@@H](C(F)(F)F)C3)cc12 [US20230312550, Example 73] |
| 0.00016 | 1.1e+06 | – | N#C[C@@H]1CSCN1C(=O)CNC(=O)c1ccnc2ccc(N3CCO[C@H](C(F)(F)F)C3)cc12 [US20230312550, Example 74] |
| 2.4e-05 | 2.3e+06 | – | N#C[C@@H]1CSCN1C(=O)CNC(=O)c1ccnc2ccc(N3C[C@@H]4C[C@H]3CO4)cc12 [US20230312550, Example 75] |
| 0.00012 | 1.6e+07 | – | N#C[C@@H]1CSCN1C(=O)CNC(=O)c1ccnc2ccc(N3CC4CCC(C3)O4)cc12 [US20230312550, Example 79] |
| 0.00011 | – | 0.00011 | N#C[C@@H]1CSCN1C(=O)CNC(=O)c1ccnc2ccc(N3CCOC[C@@H]3C(F)(F)F)cc12 [US20230312550, Example 85] |
| 0.0001 | 480000 | – | C[C@@H]1COC[C@H](C)N1c1ccc2nccc(C(=O)NCC(=O)N3CSC[C@H]3C#N)c2c1 [US20230312550, Example 90] |
| 8e-05 | 1.8e+06 | – | COC[C@@H]1CN(c2ccc3nccc(C(=O)NCC(=O)N4CSC[C@H]4C#N)c3c2)CCO1 [US20230312550, Example 93] |
| 0.00022 | 4e+06 | – | COC[C@H]1[C@H](C)OCCN1c1ccc2nccc(C(=O)NCC(=O)N3CSC[C@H]3C#N)c2c1 [US20230312550, Example 96] |
| 0.0002 | 2.1e+06 | – | N#C[C@@H]1CSCN1C(=O)CNC(=O)c1ccnc2ccc(N3CCOC4(CCOCC4)C3)cc12 [US20230312550, Example 99] |
| 0.0022 | 3e+06 | – | C[C@@H]1COC[C@H](C)N1c1cc2c(C(=O)NCC(=O)N3CSC[C@H]3C#N)ccnc2cc1Br [US20230312550, Example 100] |
| 0.0001 | 3e+06 | – | C[C@H]1COC[C@H](C)N1c1ccc2nccc(C(=O)NCC(=O)N3CSC[C@H]3C#N)c2c1 [US20230312550, Example 103] |
| 6.8e-05 | 890000 | – | C[C@@H]1COC[C@@H](C)N1c1ccc2nccc(C(=O)NCC(=O)N3CSC[C@H]3C#N)c2c1 [US20230312550, Example 105] |
